According to PubChem BioAssay AID1205 (EPA DSSTox, 2008):
The source made the active and inactive calls.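 The calls were made as follows: active = tumour findings in long-term animal cancer tests in more than one sex, species or organ; inactive = no tumour finding and more than one negative test.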

Test: DSSTox (CPDBAS) Carcinogenic Potency Database Summary MultiCellCall Results
Settings: animal carcinogenicity bioassays, multi-cell call summary
Procedure, shortened: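 Summary call drawn from chronic long-term cancer bioassays in rats, mice, hamsters, dogs and nonhuman primates, using the most positive result per sex-species. Score: multispecies=50, multisex=30, multisite=20, summed for combinations.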
With `O=C1O[C@H]([C@H](O)CO)C(O)=C1O` the outcome was “inactive; multisex inactive; multispecies inactive”.
With `O=C1NCCN1/N=C/c1ccc([N+](=O)[O-])o1` the outcome was “active; multisite active”.
For `c1ccccc1`, the outcome was “active; multisite active; multisex active; multispecies active”.
For `O=S(=O)(O)c1ccc(N=Nc2c(O)ccc3cc(S(=O)(=O)O)ccc23)cc1`, the outcome was “inactive; multisex inactive; multispecies inactive”.
For `CNC(=O)O/N=C/C(C)(C)SC`, the outcome was “inactive; multisex inactive; multispecies inactive”.
With `N=c1ccn2c(n1)O[C@H]1[C@H](O)[C@@H](CO)O[C@H]12` the outcome was “inactive; multisex inactive”.
For `CC(C)=CCl`, the outcome was “active; multisite active; multisex active; multispecies active”.
In the case of `Cc1ccc(Cc2cnc(NCCSCc3ccc(CN(C)C)o3)[nH]c2=O)cn1`, the outcome is reported as “active; multisex active”.
In the case of `N[C@@H](Cc1c[nH]c2ccccc12)C(=O)O`, the outcome is reported as “inactive; multisex inactive; multispecies inactive”.
In the case of `ClC1=C(Cl)[C@]2(Cl)[C@@H]3[C@@H]4C[C@@H]([C@H]5O[C@@H]45)[C@@H]3[C@@]1(Cl)C2(Cl)Cl`, the outcome is reported as “active; multisex active”.
In the case of `CC(=O)C1C(=O)C=C(C)OC1=O` (configuration not stated), the outcome is reported as “inactive; multisex inactive”.
In the case of `CC(C)(c1ccc(O)cc1)c1ccc(O)cc1`, the outcome is reported as “inactive; multisex inactive; multispecies inactive”.
For `[Na+]`, the outcome was “inactive; multisex inactive; multispecies inactive”.
In the case of `CN(C)CCN(Cc1cccs1)c1ccccc1`, the outcome is reported as “inactive; multisex inactive”.
In the case of `CC1CC(C)(C)CC(OOC(C)(C)C)(OOC(C)(C)C)C1` (configuration not stated), the outcome is reported as “inactive; multisex inactive”.
In the case of `c1ccc(C2CO2)cc1` (configuration not stated), the outcome is reported as “active; multisex active; multispecies active”.
For `N#CC(c1ccccc1)c1ccccc1`, the outcome was “inactive; multisex inactive”.
For `[O-][Cl+]O`, the outcome was “inactive; multisex inactive; multispecies inactive”.
For `CN1[C@@H]2CC[C@H]1CC(OC(=O)C(CO)c1ccccc1)C2` (some centres not stated), the outcome was “inactive; multisex inactive”.
In the case of `C=C(C)[C@H]1CC=C(C)C(=O)C1`, the outcome is reported as “inactive; multisex inactive”.
In the case of `CC(Cc1ccccc1)NN` (configuration not stated), the outcome is reported as “inactive; multisex inactive”.
In the case of `O=C(O)c1cc(N=Nc2ccc(S(=O)(=O)Nc3ccccn3)cc2)ccc1O`, the outcome is reported as “active; multisite active; multisex active; multispecies active”.
In the case of `O=[As](O)(O)O`, the outcome is reported as “inactive; multispecies inactive”.
In the case of `Cc1cc2c(nc1N)[nH]c1ccccc12`, the outcome is reported as “active; multisite active; multisex active; multispecies active”.
For `CCc1ccc(C(c2ccc(CC)cc2)C(Cl)Cl)cc1`, the outcome was “inactive; multisex inactive; multispecies inactive”.
In the case of `Cc1ccc(OP(=O)(Oc2ccc(C)cc2)Oc2ccc(C)cc2)cc1`, the outcome is reported as “inactive; multisex inactive; multispecies inactive”.
In the case of `c1ccc2[nH]c(-c3cscn3)nc2c1`, the outcome is reported as “inactive; multisex inactive; multispecies inactive”.
For `O1[As]2O[As]3O[As]1O[As](O2)O3`, the outcome was “inactive; multisex inactive”.
For `NC(=O)N/N=C/c1ccc([N+](=O)[O-])o1`, the outcome was “active; multisite active; multispecies active”.
With `Cc1cc(C)nc(NS(=O)(=O)c2ccc(N)cc2)n1` the outcome was “active; multisex active”.
In the case of `C#C[C@]1(OC(C)=O)CC[C@H]2[C@@H]3CCC4=C[C@@H](OC(C)=O)CC[C@@H]4[C@H]3CC[C@@]21C`, the outcome is reported as “inactive; multispecies inactive”.
For `ClC1=C(Cl)C2(Cl)C3C(Cl)C=CC3C1(Cl)C2(Cl)Cl` (configuration not stated), the outcome was “active; multisex active”.
For `CCCCCCCCCCCCCCCC(=O)OC/C=C(C)/C=C/C=C(C)/C=C/C1=C(C)CCCC1(C)C`, the outcome was “inactive; multispecies inactive”.
With `CC/C(=C(\c1ccccc1)c1ccc(OCCN(C)C)cc1)c1ccccc1` the outcome was “active; multisite active; multisex active; multispecies active”.
In the case of `CCCCCCCCCc1ccc(OCCOCCO)cc1`, the outcome is reported as “inactive; multispecies inactive”.
For `C[C@@H]1CC2(O[C@@H]2C)C(=O)O[C@@H]2CCN(C)C/C=C(/COC(=O)[C@]1(C)O)C2=O` (some centres not stated), the outcome was “active; multisite active; multisex active”.
With `OCc1ccco1` the outcome was “active; multisite active; multispecies active”.
For `CCOc1nc2cccc(C(=O)OC(C)OC(=O)OC3CCCCC3)c2n1Cc1ccc(-c2ccccc2-c2nn[nH]n2)cc1` (configuration not stated), the outcome was “inactive; multisex inactive”.
In the case of `CN(C)[C@@H]1C(=O)C(C(N)=O)=C(O)[C@@]2(O)C(=O)C3=C(O)c4c(O)cccc4[C@@](C)(O)[C@H]3C[C@@H]12`, the outcome is reported as “inactive; multisex inactive; multispecies inactive”.
In the case of `CNNC`, the outcome is reported as “active; multisite active; multisex active; multispecies active”.
With `Cc1cc(O)c2c(c1O)C(=O)C13C(=C2O)C(=O)C2C(O)C1C1C(O)C3C(=O)C3=C(O)c4c(O)cc(C)c(O)c4C(=O)C321` (configuration not stated) the outcome was “active; multisex active”.
In the case of `C/C=C/c1ccc2c(c1)OCO2`, the outcome is reported as “inactive; multisex inactive”.
With `CN(CCCO)N=O` the outcome was “active; multisite active; multisex active”.
For `C=CCc1ccc2c(c1)OCO2`, the outcome was “active; multisex active; multispecies active”.
In the case of `CN(C)CCOC(C)(c1ccccc1)c1ccccn1` (configuration not stated), the outcome is reported as “active; multisite active; multisex active; multispecies active”.
For `COc1cc2c(c3oc4cccc(O)c4c(=O)c13)C1C=COC1O2` (configuration not stated), the outcome was “active; multisite active; multisex active; multispecies active”.
With `CN(C)C(=S)S` the outcome was “inactive; multisex inactive”.
